Assays:
ITK = biological target: T1, ITK (Homo sapiens, UniProt Q08881); test: ADP-Glo + ITK Kinase enzyme system kit, inhibitory activity against ITK; format: biochemical; details: ITK enzyme 0.4 ng/ul, ATP final concentration of 25 ul, 30° C. for 1 hour, luminescence, duplicate
T1 construct: purchased Promega Corporation
T1 sequence (Q08881 1-620): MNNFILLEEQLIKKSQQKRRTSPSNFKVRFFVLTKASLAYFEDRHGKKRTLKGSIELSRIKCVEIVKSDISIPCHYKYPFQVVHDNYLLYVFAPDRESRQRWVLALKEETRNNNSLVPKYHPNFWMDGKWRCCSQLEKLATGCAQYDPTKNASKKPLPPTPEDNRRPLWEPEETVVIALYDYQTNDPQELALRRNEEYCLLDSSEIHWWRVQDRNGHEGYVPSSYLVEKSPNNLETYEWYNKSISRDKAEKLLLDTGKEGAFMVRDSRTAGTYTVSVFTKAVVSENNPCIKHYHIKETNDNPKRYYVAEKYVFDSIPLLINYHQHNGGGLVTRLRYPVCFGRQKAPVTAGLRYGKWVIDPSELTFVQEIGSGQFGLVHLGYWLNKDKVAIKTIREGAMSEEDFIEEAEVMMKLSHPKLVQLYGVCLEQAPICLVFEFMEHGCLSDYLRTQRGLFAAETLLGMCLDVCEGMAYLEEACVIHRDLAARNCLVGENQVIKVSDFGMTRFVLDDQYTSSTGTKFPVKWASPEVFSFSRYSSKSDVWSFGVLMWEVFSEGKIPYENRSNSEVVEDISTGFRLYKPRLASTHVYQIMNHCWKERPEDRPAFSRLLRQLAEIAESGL
Method: (§1) Inhibitory activities against BTK and ITK were measured for the compounds prepared in the above Examples as follows.
The inhibitory activity against ITK was evaluated using ‘ADP-Glo™+ITK Kinase enzyme system’ kit (Promega Corporation). In a white 96-well plate, 10 ul of ITK enzyme prepared so as to have a final concentration of 0.4 ng/ul was mixed with 5 ul of compounds having a final concentration of 1 uM in the case of evaluating a single concentration of compound and a concentration of 1000, 300, 100, 30, 10, 3, 1, 0.3, 0.1 and 0.03 nM in the case of IC50 evaluation, and then reacted at room temperature for 15 minutes. To the plate on which reactions were completed, 5 ul of substrate and 5 ul of ATP prepared so as to have a final concentration of […] added and then allowed to react at 30° C. for 1 hour. All wells of the plate were treated with 25 ul of ADP-Glo™ reagent and then allowed to react at 30° C. for 40 minutes. After that, all wells were treated with 50 ul of kinase detection buffer, and then allowed to react at 30° C. for 30 minutes under light shielding conditions. For the plate on which all reactions were completed, luminescence was measured and the results were calculated. Evaluation was carried out in duplicate, and negative control and positive control were calculated depending on whether or not the enzyme was added without treatment of the compound. The IC50 was calculated based on the calculated values.

BTK = biological target: T2, BTK (Homo sapiens, UniProt Q06187); test: ADP-Glo + BTK Kinase enzyme system kit, inhibitory activity against BTK; format: biochemical; details: BTK enzyme 1 ng/ul, ATP 10 μM, 30° C. for 1 hour, luminescence, duplicate
T2 construct: purchased Promega Corporation
Method: as §1
The inhibitory activities against BTK were evaluated using ‘ADP-Glo™+BTK Kinase enzyme system’ kit (Promega Corporation). In a white 96-well plate, 10 ul of BTK enzyme prepared so as to have a final concentration of 1 ng/ul was mixed with 5 μl of compounds having a final concentration of […] the case of evaluating a single concentration of compound and a concentration of 1000, 300, 100, 30, 10, 3, 1, 0.3, 0.1 and 0.03 nM in the case of IC50 evaluation, and then reacted at room temperature for 15 minutes. 5 ul of substrate and 5 ul of ATP prepared so as to have a final concentration of 10 μM were added to the plate on which reactions were completed, and then allowed to react at 30° C. for 1 hour. All wells of the plate were treated with 25 ul of ADP-Glo™ reagent and allowed to react at 30° C. for 40 minutes. After that, all wells were treated with 50 ul of kinase detection buffer, and then reacted at 30° C. for 30 minutes under light shielding conditions. For the plate on which all reactions were completed, luminescence was measured and the results were calculated. Evaluation was carried out in duplicate, and negative control and positive control were calculated depending on whether or not the enzyme was added without treatment of the compound. The IC50 was calculated based on the calculated values.

T2 sequence (Q06187 whole entry): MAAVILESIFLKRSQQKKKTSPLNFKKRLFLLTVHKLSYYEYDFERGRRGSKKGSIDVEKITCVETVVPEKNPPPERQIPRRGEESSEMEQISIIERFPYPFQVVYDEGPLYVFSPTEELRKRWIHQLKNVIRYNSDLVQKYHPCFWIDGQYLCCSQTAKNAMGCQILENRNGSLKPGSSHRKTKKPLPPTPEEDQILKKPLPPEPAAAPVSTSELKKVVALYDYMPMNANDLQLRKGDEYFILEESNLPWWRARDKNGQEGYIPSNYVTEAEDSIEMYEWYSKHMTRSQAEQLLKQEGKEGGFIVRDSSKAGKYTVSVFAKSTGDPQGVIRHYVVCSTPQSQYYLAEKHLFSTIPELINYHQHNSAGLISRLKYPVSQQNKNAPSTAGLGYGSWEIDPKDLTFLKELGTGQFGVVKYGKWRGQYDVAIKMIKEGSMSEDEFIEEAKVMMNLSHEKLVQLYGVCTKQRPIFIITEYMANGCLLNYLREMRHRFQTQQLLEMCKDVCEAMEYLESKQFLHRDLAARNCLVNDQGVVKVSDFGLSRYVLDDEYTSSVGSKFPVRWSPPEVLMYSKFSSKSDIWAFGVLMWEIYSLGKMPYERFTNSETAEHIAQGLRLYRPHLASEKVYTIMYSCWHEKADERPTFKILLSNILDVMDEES

| IC50 (ITK) | IC50 (BTK) | SMILES |
| --- | --- | --- |
| 2.9 nM | 1.9 nM | C=CC(=O)Nc1cccc(-c2cc(CN3CCN(C(C)C)CC3)cc(Nc3ncc(C)s3)n2)c1 [Compound 54] |
| 13.4 nM | 10.6 nM | C=CC(=O)Nc1cccc(-c2cc(CN3CCCN(C)CC3)cc(Nc3ncc(C)s3)n2)c1 [Compound 55, N-(3-(4-((4-methyl-1,4-diazepan-1-yl)methyl)-6-(5-methylthiazol-2-ylamino)pyridin-2-yl)phenyl)acrylamide] |
| 4.2 nM | 1.8 nM | C=CC(=O)Nc1cc(-c2cc(CN3CCOCC3)cc(Nc3ncc(C)s3)n2)ccc1F [Compound 56, N-(2-fluoro-5-(6-((5-methylthiazol-2-yl)amino)-4-(morpholinomethyl)pyridin-2-yl)phenyl)acrylamide] |
| 23.2 nM | > 6.3 nM | C=CC(=O)Nc1cc(F)cc(-c2cc(CN3CCOCC3)cc(Nc3ncc(C)s3)n2)c1 [Compound 57, N-(3-fluoro-5-(6-((5-methylthiazol-2-yl)amino)-4-(morpholinomethyl)pyridin-2-yl)phenyl)acrylamide] |
| 14.1 nM | 6.4 nM | C=CC(=O)Nc1cc(-c2cc(CN3CCOCC3)cc(Nc3ncc(C)s3)n2)ccc1C [Compound 58] |
| 18.1 nM | 8.3 nM | C=CC(=O)Nc1ccc(C)c(-c2cc(CN3CCOCC3)cc(Nc3ncc(C)s3)n2)c1 [Compound 59, N-(4-methyl-3-(6-((5-methylthiazol-2-yl)amino)-4-(morpholinomethyl)pyridin-2-yl)phenyl)acrylamide] |
| 2.2 nM | 1.9 nM | C=CC(=O)Nc1cccc(-c2cc(CN3CCN(C(C)=O)CC3)cc(Nc3ncc(C)s3)n2)c1 [Compound 60, N-(3-(4-((4-acetylpiperazin-1-yl)methyl)-6-(5-methylthiazol-2-ylamino)pyridin-2-yl)phenyl)acrylamide] |
| 13.5 nM | 9.5 nM | C=CC(=O)Nc1cccc(-c2cc(CN3CCN(C(=O)CC)CC3)cc(Nc3ncc(C)s3)n2)c1 [Compound 61, N (3(6(5methylthiazol-2-ylamino)-4-((4-propionylpiperazin-1-yl)methyl)pyridin-2-yl)phenyl)acrylamide] |
| 9 nM | 6.7 nM | C=CC(=O)Nc1cccc(-c2cc(CN3CCN(C(=O)C4CC4)CC3)cc(Nc3ncc(C)s3)n2)c1 [Compound 63, N (3(4((4-(cyclopropanecarbonyl)piperazin-1-yl)methyl)-6-(5-methylthiazol-2-ylamino)pyridin-2-yl)phenyl)acrylamide] |
| 15.7 nM | 18.1 nM | C=CC(=O)Nc1ccc(Cl)c(-c2cc(CN3CCOCC3)cc(Nc3ncc(C)s3)n2)c1 [Compound 64] |
| 2.1 nM | 1.9 nM | C=CC(=O)N(C)c1cccc(-c2cc(CN3CCOCC3)cc(Nc3ncc(C)s3)n2)c1 [Compound 65] |
| 3.7 nM | 1.3 nM | C=CC(=O)N(CC)c1cccc(-c2cc(CN3CCOCC3)cc(Nc3ncc(C)s3)n2)c1 [Compound 66, N-ethyl-N-(3-(6-(5-methylthiazol-2-ylamino)-4-(morpholinomethyl)pyridin-2-yl)phenyl)acrylamide] |
| > 200 nM | 64.1 nM | C=CC(=O)Nc1cccc(-c2cc(CN3CCOCC3)cc(NC(=O)NC)n2)c1 [Compound 67, N-(3-(6-(3-methylureido)-4-(morpholinomethyl)pyridin-2-yl)phenyl)acrylamide] |
| > 1000 nM | > 400 nM | C=CC(=O)Nc1cccc(-c2cc(CN3CCOCC3)cc(NC(=O)CC)n2)c1 [Compound 68, N-(3-(4-(morpholinomethyl)-6-propionamidopyridin-2-yl)phenyl)acrylamide] |
| 8 nM | 3.3 nM | C=CC(=O)Nc1cccc(-c2cc(Cc3cccnc3)cc(Nc3cc(C)[nH]n3)n2)c1 [Compound 72, N-(3-(6-((5-methyl-1H-pyrazol-3-yl)amino)-4-(pyridin-3-ylmethyl)pyridin-2-yl)phenyl)acrylamide] |
| 2.3 nM | 2.5 nM | C=CC(=O)Nc1cccc(-c2cc(Cc3cccnc3)cc(Nc3ncc(C)s3)n2)c1 [Compound 73, N-(3-(6-((5-methylthiazol-2-yl)amino)-4-(pyridin-3-ylmethyl)pyridin-2-yl)phenyl)acrylamide] |
